Counter-ions that a name gives are not always drawn.
Key:
Format in all cases: cell-based
Settings in all cases: β-lactam (CXA-101/Ceftolozane or ceftazidime) fixed at 4 μg/mL; compared with Avibactam (comparator compound CCC)
[1] = test system: bacterial strains that express P99 β-lactamase (isogenic E. coli strain P99 AmpC); test: Synergy MIC (sMIC) assay, P99 AmpC strain
Description: (§1) A set of β-lactamase expressing isogenic E. coli strains was constructed by cloning a β-lactamase gene into a customized derivative of pBR322 (GenBank Accession Number J01749) and transforming the engineered plasmids into E. coli. The NdeI restriction site within the plasmid backbone of pBR322 was removed to generate pBR322 ΔNdeI. The pBR322 ΔNdeI vector itself, minus the blaTEM-1 gene, was amplified using two primers: (1) pBR-Pbla 5′-[…]-3, SEQ ID 1, a primer with an engineered NdeI restriction site at the 3′ end of the blaTEM-1 promoter and (2) pBR-vec-1 5′-[…]-3′, SEQ ID 2, a primer with an engineered BamHI restriction site at the 3′ end of the blaTEM-1 open reading frame. The chloramphenicol resistance gene, cat, was generated by PCR amplification from pKD3 (GenBank Accession Number AY048742) using primers with an engineered NdeI restriction site at the 5′ end (Pbla-cat 5′-[…]-3′, SEQ ID 3) and an engineered BamHI restriction site at the 3′ end (Vec-1-cat 5′-[…]-3′, SEQ ID 4) of the resistance gene. The two PCR products, pBR322 ΔNdeI and cat were ligated together generating pBR-CBST (pBR322 ΔNdeI ΔTEM-1::cat Seq. ID 5) which retains both the pBR322 tetracycline resistance cassette, tetA, and the plasmid origin of replication but the blaTEM-1 gene was replaced by the cat gene.
(§2) Using this engineering strategy a number of plasmids producing β-lactamase genes from different classes (see below) were generated using synthetic genes with an engineered NdeI restriction site at the 5′ end and BamHI restriction site at the 3′ end of each gene (GenScript). Both the synthetic β-lactamase genes and cat gene were ligated into the NdeI/BamHI sites of the pBR322 ΔNdeI PCR product and transformed into electrocompetent E. coli ElectroMax DH10B (Invitrogen/Life Technologies). E. coli DH10B harboring the recombinant plasmids were selected on LB agar (supplemented with 25 μg/mL tetracycline) and single isolated colonies were then inoculated into 5 mL LB media (supplemented with 25 μg/mL tetracycline), and incubated at 37° C. with aeration (250 rpm) for 18 hrs. The cultures were frozen back at −80° C. in 20% glycerol. The DNA sequence of the cloned β-lactamase genes was confirmed. The β-lactamase gene expression in the recombinant E. coli strains was driven by the blaTEM-1 promoter in the pBR-CBST plasmid and was characterized by MIC profiling of the E. coli recombinant strains against comparator β-lactam/BLI combinations in broth microdilution assay.
(§3) The synergy MIC (sMIC) assay determines the concentration of the BLI required to potentiate the activity of a fixed concentration of a β-lactam antibiotic against β-lactamase producing bacterial strains. The experimental protocol was performed according to Clinical and Laboratory Standards Institute (CLSI) guidelines with modifications as described below (CLSI guidelines can be derived from the CLSI document M07-A9 published in January 2012: “Methods for Dilution Antimicrobial Susceptibility Tests for Bacteria That Grow Aerobically; Approved Standard-Ninth Edition”). The assay is set-up by serially diluting the BLI across 11 of the 12 wells in each row of a 96-well broth microdilution assay plate, adding the β-lactam at a fixed concentration to all wells in the assay plate, inoculating the assay plate with bacterial strains, and determining the lowest concentration of BLI required to inhibit overnight bacterial growth.
(§4) To prepare for MIC testing, frozen glycerol stocks of laboratory engineered, isogenic E. coli strains, which contain cloned β-lactamase expressing plasmids were used to streak for isolated colonies on rich, selective LB agar supplemented with 25 μg/mL tetracycline to maintain the plasmid. All strains were incubated at 37° C. for 18-24 hrs.
(§5) On the day of testing, primary cultures were started by scraping off 5-10 colonies from the tetracycline supplemented LB plates containing engineered strains. […]

[2] = test system: bacterial strains that express KPC β-lactamase (isogenic E. coli strain KPC-2); test: Synergy MIC (sMIC) assay, KPC strain
Description: as §1, §2, §3, §4, §5

[3] = test system: bacterial strains that express OXA-15 β-lactamase (isogenic E. coli strain); test: Synergy MIC (sMIC) assay, OXA-15 strain
Description: as §1, §2, §3, §4, §5

[4] = test system: bacterial strains that express SHV-12 β-lactamase (isogenic E. coli strain); test: Synergy MIC (sMIC) assay, SHV-12 strain
Description: as §1, §2, §3, §4, §5

[5] = test system: bacterial strains that express CTX-M-15 β-lactamase (isogenic E. coli strain); test: Synergy MIC (sMIC) assay, CTX-M-15 strain
Description: as §1, with “cat gene. […]” for “cat gene.”

Compound: O=C1N2C[C@@H](CC[C@H]2c2nncs2)N1OS(=O)(=O)O [Compound 300, (2S,5R)-7-oxo-2-(1,3,4-thiadiazol-2-yl)-1,6-diazabicyclo[3.2.1]octan-6-yl hydrogen sulfate]
- activity against bacterial strains that express P99 β-lactamase relative to Avibactam (sMIC) [1]: as active as Avibactam
- activity against bacterial strains that express KPC β-lactamase relative to Avibactam (sMIC) [2]: as active or more active than Avibactam
- activity against bacterial strains that express OXA-15 β-lactamase relative to Avibactam (sMIC) [3]: more active than Avibactam
- activity against bacterial strains that express SHV-12 β-lactamase relative to Avibactam (sMIC) [4]: as active as Avibactam
- activity against bacterial strains that express CTX-M-15 β-lactamase relative to Avibactam (sMIC) [5]: as active as Avibactam
